Measurements from patent US20220348592A1, “FUSED HETEROCYCLIC DERIVATIVES” (Janssen Sciences Ireland Unlimited Company, priority 2019, published 2022).
Read-outs that look alike come from different tables or passages of the source.

Key:
[1] = tested on: HBV; test: Anti-HBV activity: intracellular HBV DNA by real-time PCR in HepG2.117 cell line; assay type: cell-based, Hepatitis B virus; conditions: Hepatitis B virus, read-out: HBV-AVE-HepG2.117 EC50 (μM, mean value)
Method: The anti HBV activity was measured using the HepG2.117 cell line, a stable, inducibly HBV producing cell line, which replicates HBV in the absence of doxicycline (Tet-off system). The HepG2 cell line is available from ATCC® under number HB-8065. Transfection of the HepG2 cell line can be as described in Sun and Nassal 2006 Journal of Hepatology 45 (2006) 636-645 “Stable HepG2- and Huh7-based human hepatoma cell lines for efficient regulated expression of infectious hepatitis B virus”.
For the antiviral assay, HBV replication was induced, followed by a treatment with serially diluted compound in 96-well plates. After 3 days of treatment, the antiviral activity was determined by quantification of intracellular HBV DNA using real-time PCR and an HBV specific primer set and probe.

[2] = Cytotoxicity in HepG2.117 cells, ATPlite Luminescence Assay; assay type: cell-based, human; conditions: human, incubated for 3 days, mean value, read-out: TOX-HepG2.117 CC50 (μM, mean value)
Method: Cytotoxicity of the compounds was tested using HepG2 or HepG2.117 cells, incubated for 3 days in the presence of compounds. The viability of the cells was assessed using the PERKIN ELMER ATPlite Luminescence Assay System.”

[3] = 72 h, HepG2.117 cells, 3 days of treatment, intracellular HBV DNA by real-time PCR, mean value

Row | Compound | EC50 [1, 3] [µM] | CC50 at 3 days [2] [µM] | EC50 ([1]; HepG2.117, 72 h) [µM]
1 | O=C1NCCn2nc3c(c21)CN(C(=O)c1ccc(Cl)c(Cl)c1)CC3 [Compound 1, 2-(3,4-Dichlorobenzoyl)-1,2,3,4,8,9-hexahydropyrido[4′,3′:3,4]pyrazolo[1,5-a]pyrazin-10(7H)-one] | 9.63 | > 50 | –
2 | O=C(c1ccc(Cl)c(Cl)c1)N1CCc2nn3c(c2C1)C(=O)N(Cc1ccccc1)CC3 [Compound 3, 9-Benzyl-2-(3,4-dichlorobenzoyl)-1,2,3,4,8,9-hexahydropyrido[4′,3′:3,4]pyrazolo[1,5-a]pyrazin-10(7H)-one] | – | 25.3 | 0.188
3 | COc1ccc(CN2CCn3nc4c(c3C2=O)CN(C(=O)c2ccc(Cl)c(Cl)c2)CC4)cc1 [Compound 4, 2-(3,4-Dichlorobenzoyl)-9-[(4-methoxyphenyl)methyl]-1,2,3,4,8,9-hexahydropyrido[4′,3′:3,4]-pyrazolo[1,5-a]pyrazin-10(7H)-one] | 0.091 | 17.9 | –
4 | CC(c1ccncc1)N1CCn2nc3c(c2C1=O)CN(C(=O)c1ccc(Cl)c(Cl)c1)CC3 (stereo not drawn) [Compound 5, 2-(3,4-Dichlorobenzoyl)-9-[1-(pyridin-4-yl)ethyl]-1,2,3,4,8,9-hexahydropyrido[4′,3′:3,4-]pyrazolo[1,5-a]pyrazin-10(7H)-one] | 0.213 | > 50 | –
5 | O=C(c1ccc(Cl)c(Cl)c1)N1CCc2nn3c(c2C1)C(=O)N(Cc1nccs1)CC3 [Compound 7, 2-(3,4-Dichlorobenzoyl)-9-[(1,3-thiazol-2-yl)methyl]-1,2,3,4,8,9-hexahydropyrido[4′,3′:3,4]-pyrazolo[1,5-a]pyrazin-10(7H)-one] | 0.399 | > 50 | –
6 | O=C(c1ccc(Cl)c(Cl)c1)N1CCc2nn3c(c2C1)C(=O)N(Cc1c[nH]c2ccccc12)CC3 [Compound 8, 2-(3,4-Dichlorobenzoyl)-9-[(1H-indol-3-yl)methyl]-1,2,3,4,8,9-hexahydropyrido[4′,3′:3,4]-pyrazolo[1,5-a]pyrazin-10(7H)-one] | < 0.039 | 10.8 | –
7 | O=C(c1ccc(Cl)c(Cl)c1)N1CCc2nn3c(c2C1)C(=O)N(Cc1cccc2[nH]ccc12)CC3 [Compound 9, 2-(3,4-Dichlorobenzoyl)-9-[(1H-indol-4-yl)methyl]-1,2,3,4,8,9-hexahydropyrido[4′,3′:3,4]-pyrazolo[1,5-a]pyrazin-10(7H)-one] | 0.054 | 16.4 | –
8 | O=C(c1ccc(Cl)c(Cl)c1)N1CCc2nn3c(c2C1)C(=O)N(Cc1ccc(OC(F)F)cc1)CC3 [Compound 10, 2-(3,4-Dichlorobenzoyl)-9-{[4-(difluoromethoxy)phenyl]methyl}-1,2,3,4,8,9-hexahydropyrido-[4′,3′:3,4]pyrazolo[1,5-a]pyrazin-10(7H)-one] | 0.062 | 7.26 | –
9 | COc1ccc(CN2CCn3nc4c(c3C2=O)CN(C(=O)c2ccc(Cl)c(Cl)c2)[C@H](C)C4)cc1 [Compound 11, (3R)-2-(3,4-Dichlorobenzoyl)-9-[(4-methoxyphenyl)methyl]-3-methyl-1,2,3,4,8,9-hexahydro-pyrido[4′,3′:3,4]pyrazolo[1,5-a]pyrazin-10(7H)-one] | 0.054 | 8.43 | –
10 | C[C@@H]1Cc2nn3c(c2CN1C(=O)c1ccc(Cl)c(Cl)c1)C(=O)N(Cc1ccc(F)cc1)CC3 [Compound 12, (3R)-2-(3,4-Dichlorobenzoyl)-9-[(4-fluorophenyl)methyl]-3-methyl-1,2,3,4,8,9-hexahydro-pyrido[4′,3′:3,4]pyrazolo[1,5-a]pyrazin-10(7H)-one] | 0.066 | 25.3 | –
11 | C[C@@H]1Cc2nn3c(c2CN1C(=O)c1ccc(Cl)c(Cl)c1)C(=O)N(Cc1ccc(OC(F)(F)F)cc1)CC3 [Compound 14, (3R)-2-(3,4-Dichlorobenzoyl)-3-methyl-9-{[4-(trifluoromethoxy)phenyl]methyl}-1,2,3,4,8,9-hexahydropyrido[4′,3′:3,4]pyrazolo[1,5-a]pyrazin-10(7H)-one] | 0.085 | 6.96 | –
12 | C[C@@H]1Cc2nn3c(c2CN1C(=O)c1ccc(Cl)c(Cl)c1)C(=O)N(Cc1ccccn1)CC3 [Compound 15, (3R)-2-(3,4-Dichlorobenzoyl)-3-methyl-9-[(pyridin-2-yl)methyl]-1,2,3,4,8,9-hexahydropyrido-[4′,3′:3,4]pyrazolo[1,5-a]pyrazin-10(71)-one] | 0.055 | > 50 | –
13 | C[C@@H]1Cc2nn3c(c2CN1C(=O)c1ccc(Cl)c(Cl)c1)C(=O)N(Cc1cccnc1)CC3 [Compound 16, (3R)-2-(3,4-Dichlorobenzoyl)-3-methyl-9-[(pyridin-3-yl)methyl]-1,2,3,4,8,9-hexahydropyrido-[4′,3′:3,4]pyrazolo[1,5-a]pyrazin-10(7H)-one] | 0.079 | > 50 | –
14 | C[C@@H]1Cc2nn3c(c2CN1C(=O)c1ccc(Cl)c(Cl)c1)C(=O)N(Cc1ccncc1)CC3 [Compound 17, (3R)-2-(3,4-Dichlorobenzoyl)-3-methyl-9-[(pyridin-4-yl)methyl]-1,2,3,4,8,9-hexahydropyrido-[4′,3′:3,4]pyrazolo[1,5-a]pyrazin-10(7H)-one] | – | > 50 | 0.436
15 | C[C@@H]1Cc2nn3c(c2CN1C(=O)c1ccc(Cl)c(Cl)c1)C(=O)N(Cc1ccnn1C)CC3 [Compound 18, (3R)-2-(3,4-Dichlorobenzoyl)-3-methyl-9-[(1-methyl-1H-pyrazol-5-yl)methyl]-1,2,3,4,8,9-hexahydropyrido[4′,3′:3,4]pyrazolo[1,5-a]pyrazin-10(7H)-one] | 0.252 | > 50 | –
16 | C[C@@H]1Cc2nn3c(c2CN1C(=O)c1ccc(Cl)c(Cl)c1)C(=O)N(Cc1ccn(C)n1)CC3 [Compound 19, (3R)-2-(3,4-Dichlorobenzoyl)-3-methyl-9-[(1-methyl-1H-pyrazol-3-yl)methyl]-1,2,3,4,8,9-hexahydropyrido[4′,3′:3,4]pyrazolo[1,5-a]pyrazin-10(7H)-one] | 0.079 | > 50 | –
17 | C[C@@H]1Cc2nn3c(c2CN1C(=O)c1ccc(Cl)c(Cl)c1)C(=O)N(Cc1cc[nH]n1)CC3 [Compound 20, (3R)-2-(3,4-Dichlorobenzoyl)-3-methyl-9-[(1H-pyrazol-3-yl)methyl]-1,2,3,4,8,9-hexahydro-pyrido[4′,3′:3,4]pyrazolo[1,5-a]pyrazin-10(7H)-one] | 0.108 | > 50 | –
18 | C[C@@H]1Cc2nn3c(c2CN1C(=O)c1ccc(Cl)c(Cl)c1)C(=O)N(Cc1ccon1)CC3 [Compound 21, (3R)-2-(3,4-Dichlorobenzoyl)-3-methyl-9-[(1,2-oxazol-3-yl)methyl]-1,2,3,4,8,9-hexahydro-pyrido[4′,3′:3,4]pyrazolo[1,5-a]pyrazin-10(7H)-one] | 0.268 | > 50 | –
19 | C[C@@H]1Cc2nn3c(c2CN1C(=O)c1ccc(Cl)c(Cl)c1)C(=O)N(Cc1cscn1)CC3 [Compound 22, (3R)-2-(3,4-Dichlorobenzoyl)-3-methyl-9-[(1,3-thiazol-4-yl)methyl]-1,2,3,4,8,9-hexahydro-pyrido[4′,3′:3,4]pyrazolo[1,5-a]pyrazin-10(7H)-one] | 0.129 | > 50 | –
20 | COc1ccc([C@@H](C)N2CCn3nc4c(c3C2=O)CN(C(=O)c2ccc(Cl)c(Cl)c2)[C@H](C)C4)cc1 [Compound 23, (3R)-2-(3,4-Dichlorobenzoyl)-9-[(1R)-1-(4-methoxyphenyl)ethyl]-3-methyl-1,2,3,4,8,9-hexahydropyrido[4′,3′:3,4]pyrazolo[1,5-a]pyrazin-10(7H)-one] | 0.022 | > 50 | –
21 | COc1ccc([C@H](C)N2CCn3nc4c(c3C2=O)CN(C(=O)c2ccc(Cl)c(Cl)c2)[C@H](C)C4)cc1 [Compound 24, (3R)-2-(3,4-dichlorobenzoyl)-9-[(1S)-1-(4-methoxyphenyl)ethyl]-3-methyl-1,2,3,4,8,9-hexahydropyrido[4′,3′:3,4]pyrazolo[1,5-a]pyrazin-10(7H)-one] | 0.036 | 10.4 | –
22 | C[C@@H]1Cc2nn3c(c2CN1C(=O)c1ccc(Cl)c(Cl)c1)C(=O)N([C@H](C)c1ccc(F)cc1)CC3 [Compound 25, (3R)-2-(3,4-Dichlorobenzoyl)-9-[(1R)-1-(4-fluorophenyl)ethyl]-3-methyl-1,2,3,4,8,9-hexahydropyrido[4′,3′:3,4]pyrazolo[1,5-a]pyrazin-10(7H)-one] | 0.016 | > 25 | –
23 | C[C@@H]1Cc2nn3c(c2CN1C(=O)c1ccc(Cl)c(Cl)c1)C(=O)N([C@@H](C)c1ccc(F)cc1)CC3 [Compound 26, (3R)-2-(3,4-Dichlorobenzoyl)-9-[(1S)-1-(4-fluorophenyl)ethyl]-3-methyl-1,2,3,4,8,9-hexahydro-pyrido[4′,3′:3,4]pyrazolo[1,5-a]pyrazin-10(7H)-one] | 0.028 | 26.2 | –
24 | C[C@@H]1Cc2nn3c(c2CN1C(=O)c1ccc(Cl)c(Cl)c1)C(=O)N([C@H](C)c1ccc(OC(F)F)cc1)CC3 [Compound 27, (3R)-2-(3,4-Dichlorobenzoyl)-9-{(1R)-1-[4-(difluoromethoxy)phenyl]ethyl}-3-methyl-1,2,3,4,8,9-hexahydropyrido[4′,3′:3,4]pyrazolo[1,5-a]pyrazin-10(7H)-one] | 0.103 | > 50 | –
